The values below come from patent US5375693A (Sepracor, Inc., priority 1994, dated 1994).

What is called inhibition is the drop in the measured response relative to a control, in per cent.

One series addresses histamine H1 -receptor (Bos taurus, UniProt P30546). Description: biochemical. The settings on record: pH 7.5, read-out: Percent Inhibition. Here is the method: 32:1653-1663 (1979). Briefly, membranes from bovine cerebellum were incubated with [^3 H]pyrilamine and varying concentrations of test compound. The reactions were carried out in 50 mM sodium phosphate buffer (pH 7.5) at 25° C. for 30 minutes. The reaction was terminated by rapid vacuum filtration onto glass fiber filters. Radioactivity trapped on the filters was determined and compared to control values to acertain the interaction of the test compound with the H1 -receptor.

For series [1] the following is noted: cited from earlier work.
For series [2] the following is noted: in vivo; cited from earlier work.
The subject of another series is allergic rhinitis. The settings on record: compared with chlorpheniramine; cited from earlier work.
Series [3] has as its system histamine induced lethality. The settings on record: guinea pig; cited from earlier work.
Series [4] concerns airway resistance caused by LTD4 (leukotriene D4). The settings on record: guinea pigs; cited from earlier work.

Sequence of histamine H1 -receptor (P30546 whole entry): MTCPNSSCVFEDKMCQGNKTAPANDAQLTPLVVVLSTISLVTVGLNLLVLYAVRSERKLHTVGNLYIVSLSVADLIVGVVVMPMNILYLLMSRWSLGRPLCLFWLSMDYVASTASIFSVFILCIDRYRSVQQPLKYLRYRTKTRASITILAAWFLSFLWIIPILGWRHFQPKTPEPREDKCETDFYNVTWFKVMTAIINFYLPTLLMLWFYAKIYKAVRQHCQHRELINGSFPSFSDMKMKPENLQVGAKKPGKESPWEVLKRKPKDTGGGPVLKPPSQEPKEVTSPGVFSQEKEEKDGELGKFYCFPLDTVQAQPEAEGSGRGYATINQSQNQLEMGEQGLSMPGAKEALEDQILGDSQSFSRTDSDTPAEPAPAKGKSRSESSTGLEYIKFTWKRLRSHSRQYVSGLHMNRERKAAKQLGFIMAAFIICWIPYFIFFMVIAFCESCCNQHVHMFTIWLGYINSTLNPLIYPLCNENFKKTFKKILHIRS

Consider `CC(C)(C(=O)O)c1ccc([C@H](O)CCCN2CCC(C(O)(c3ccccc3)c3ccccc3)CC2)cc1` [R-(+)-terfenadine carboxylate], for which, on histamine H1 -receptor, the inhibition at 0.001 µM was determined as 12.4%, the inhibition at 0.1 µM was 45.2% and the inhibition at 10 µM came out at 87.3%.
On to `CC(C)(C)c1ccc(C(O)CCCN2CCC(C(O)(c3ccccc3)c3ccccc3)CC2)cc1` (racemic) [Terfenadine], for which, in series [1] (administration to a human), the “adverse effects: cardiac arrhythmias” value was “cardiac arrhythmias, including ventricular tachyarrhythmias, torsades de pointes, and ventricular fibrillation”. Also, in series [1] (coadministration with other drugs such as ketoconazole and erythromycin or upon overdose), the “occurrence of cardiac arrhythmias” value is “an increase in the occurrence of these cardiac arrhythmias”. For the same compound, the “sedation, gastrointestinal distress, dry mouth, and constipation or diarrhea” value in series [1] (in vivo) is “relatively less sedation, gastrointestinal distress, dry mouth, and constipation or diarrhea”. For the same compound, in series [2], the absorption result is listed as “well absorbed” and the metabolism result is “extensively metabolized”. For the same compound, the “clinical efficacy in allergic rhinitis” value with allergic rhinitis is “slightly less effective than chlorpheniramine”. The “protection against histamine induced lethality” value in series [3] is reported as “protects against histamine induced lethality in the guinea pig”. For the same compound, the “increase in airway resistance caused by LTD4” value in series [4] is reported as “suppressed”.
As to `CC(C)(C(=O)O)c1ccc([C@@H](O)CCCN2CCC(C(O)(c3ccccc3)c3ccccc3)CC2)cc1` [S-(-)-terfenadine carboxylate], on histamine H1 -receptor, the inhibition at 0.001 µM stood at 8.1%, the inhibition at 0.1 µM worked out at 54.1% and the inhibition at 10 µM was 88.7%.
